Experimental findings from ChEMBL document CHEMBL3608247, “Human SIRT3 tripeptidic inhibitors containing N(ε)-thioacetyl-lysine” (Bioorg Med Chem Lett, 2015) are described below.

Test [1] addresses T1, NAD-dependent protein deacetylase sirtuin-2 (Homo sapiens, UniProt Q8IXJ6).
T1 sequence (Q8IXJ6 whole entry): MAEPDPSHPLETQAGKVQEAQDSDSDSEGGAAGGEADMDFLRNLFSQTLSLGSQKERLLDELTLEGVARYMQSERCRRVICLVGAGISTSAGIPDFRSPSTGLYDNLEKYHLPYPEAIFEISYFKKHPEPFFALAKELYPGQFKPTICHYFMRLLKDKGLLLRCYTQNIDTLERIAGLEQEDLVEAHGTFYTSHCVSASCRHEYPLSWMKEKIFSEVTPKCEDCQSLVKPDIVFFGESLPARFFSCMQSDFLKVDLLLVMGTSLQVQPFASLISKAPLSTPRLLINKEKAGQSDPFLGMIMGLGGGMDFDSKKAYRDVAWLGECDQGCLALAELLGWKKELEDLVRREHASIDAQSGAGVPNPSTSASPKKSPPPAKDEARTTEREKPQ
In words: Inhibition of human His6-tagged SIRT2 after 12 mins by HPLC analysis in presence of beta-NAD.

Test [2] addresses T2, NAD-dependent protein deacetylase sirtuin-1 (Homo sapiens, UniProt Q96EB6).
T2 sequence (Q96EB6 whole entry): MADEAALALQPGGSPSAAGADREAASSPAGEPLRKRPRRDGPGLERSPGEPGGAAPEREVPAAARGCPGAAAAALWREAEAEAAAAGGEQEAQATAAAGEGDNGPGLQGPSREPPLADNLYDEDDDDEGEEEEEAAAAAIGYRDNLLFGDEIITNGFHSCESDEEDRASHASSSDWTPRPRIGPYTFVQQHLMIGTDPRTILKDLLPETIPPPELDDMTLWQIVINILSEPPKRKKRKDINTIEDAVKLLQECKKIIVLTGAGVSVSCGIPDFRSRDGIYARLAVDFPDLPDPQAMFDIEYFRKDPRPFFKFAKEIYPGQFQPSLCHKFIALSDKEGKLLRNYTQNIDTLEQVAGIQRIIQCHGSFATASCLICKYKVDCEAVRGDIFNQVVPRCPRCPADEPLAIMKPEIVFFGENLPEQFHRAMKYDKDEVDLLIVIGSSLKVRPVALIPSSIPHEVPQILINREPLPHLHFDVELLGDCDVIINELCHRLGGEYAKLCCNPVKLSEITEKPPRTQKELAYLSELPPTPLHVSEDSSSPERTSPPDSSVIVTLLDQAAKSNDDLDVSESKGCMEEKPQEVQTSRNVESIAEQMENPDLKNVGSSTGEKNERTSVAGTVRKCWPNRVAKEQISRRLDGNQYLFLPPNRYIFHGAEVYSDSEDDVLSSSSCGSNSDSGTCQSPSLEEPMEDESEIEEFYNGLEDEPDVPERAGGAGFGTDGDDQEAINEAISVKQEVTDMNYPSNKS
In words: Inhibition of human His6 or GST-tagged SIRT1 after 10 mins by HPLC analysis in presence of beta-NAD.

The target of test [3] is T3, NAD-dependent protein deacetylase sirtuin-3, mitochondrial (Homo sapiens, UniProt Q9NTG7).
T3 sequence (Q9NTG7 whole entry): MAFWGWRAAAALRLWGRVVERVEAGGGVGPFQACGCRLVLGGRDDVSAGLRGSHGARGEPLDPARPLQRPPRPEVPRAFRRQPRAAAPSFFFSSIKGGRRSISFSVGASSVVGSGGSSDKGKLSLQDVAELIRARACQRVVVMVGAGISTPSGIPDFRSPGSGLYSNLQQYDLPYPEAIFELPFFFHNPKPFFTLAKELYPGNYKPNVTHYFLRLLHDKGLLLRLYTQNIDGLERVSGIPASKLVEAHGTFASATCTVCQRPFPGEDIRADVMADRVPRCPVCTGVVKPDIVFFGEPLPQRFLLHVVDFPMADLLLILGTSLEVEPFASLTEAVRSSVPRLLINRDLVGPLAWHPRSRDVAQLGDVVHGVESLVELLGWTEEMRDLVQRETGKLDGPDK
The experiment in a line: Inhibition of human His6-tagged SIRT3 after 10 mins by HPLC analysis in presence of beta-NAD.

The target in test [4] is T1, NAD-dependent protein deacetylase sirtuin-2. The experiment in a line: Inhibition of human His6-tagged SIRT2 after 12 mins by Dixon plot analysis in presence of beta-NAD.
In test [5] the target is T2, NAD-dependent protein deacetylase sirtuin-1. In words: Inhibition of human His6 or GST-tagged SIRT1 after 10 mins by Dixon plot analysis in presence of beta-NAD.
In test [6] the target is T3, NAD-dependent protein deacetylase sirtuin-3, mitochondrial. In words: Inhibition of human His6-tagged SIRT3 after 10 mins by Dixon plot analysis in presence of beta-NAD.
For test [7], the species on record is Homo sapiens. The experiment in a line: Selectivity ratio of IC50 for human His6 or GST-tagged SIRT1 to IC50 for human His6-tagged SIRT3.
The species named for test [8] is Homo sapiens. In words: Selectivity ratio of IC50 for human His6-tagged SIRT2 to IC50 for human His6-tagged SIRT3.
Test [9] addresses NAD-dependent protein deacylase sirtuin-5, mitochondrial (Homo sapiens, UniProt Q9NXA8). In words: Inhibition of human GST-tagged SIRT5 after 5 mins by HPLC analysis in presence of beta-NAD.
Test [10] deals with NAD-dependent protein deacylase sirtuin-6 (Homo sapiens, UniProt Q8N6T7). The experiment in a line: Inhibition of human GST-tagged SIRT6 after 12 mins by HPLC analysis in presence of beta-NAD.
NAD-dependent protein deacylase sirtuin-6, sequence (Q8N6T7 whole entry): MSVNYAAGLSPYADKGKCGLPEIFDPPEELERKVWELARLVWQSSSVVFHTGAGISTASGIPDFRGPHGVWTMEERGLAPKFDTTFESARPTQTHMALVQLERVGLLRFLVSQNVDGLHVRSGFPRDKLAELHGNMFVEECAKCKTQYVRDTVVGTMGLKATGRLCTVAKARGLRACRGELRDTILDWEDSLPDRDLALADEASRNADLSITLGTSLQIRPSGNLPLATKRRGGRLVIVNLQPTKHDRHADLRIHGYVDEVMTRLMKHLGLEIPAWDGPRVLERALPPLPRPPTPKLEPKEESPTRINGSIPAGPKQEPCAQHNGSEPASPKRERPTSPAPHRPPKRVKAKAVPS

NAD-dependent protein deacylase sirtuin-5, mitochondrial, sequence (Q9NXA8 whole entry): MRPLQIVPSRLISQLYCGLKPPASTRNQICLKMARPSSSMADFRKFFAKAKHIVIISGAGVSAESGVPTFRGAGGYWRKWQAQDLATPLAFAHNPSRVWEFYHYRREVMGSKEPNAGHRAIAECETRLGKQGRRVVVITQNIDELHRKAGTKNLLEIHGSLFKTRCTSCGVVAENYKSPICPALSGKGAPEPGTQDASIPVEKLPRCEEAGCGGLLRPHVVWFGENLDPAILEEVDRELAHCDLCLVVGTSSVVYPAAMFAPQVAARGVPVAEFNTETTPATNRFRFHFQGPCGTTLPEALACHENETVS

Take `CC(=O)NCCCC[C@H](NC(C)=O)C(=O)N[C@@H](CCCCNC(C)=S)C(=O)N[C@@H](Cc1ccc(-c2ccccc2)cc1)C(N)=O`: the IC50 was found to be 3.92 µM in test [1], 2.4 µM in [2] and 3.2 µM in test [3].

Turning to `CC(=O)NCCCC[C@H](NC(=O)[C@H](CCCCNC(C)=S)NC(=O)[C@H](CNC(C)=O)NC(C)=O)C(N)=O`, the IC50 in test [1] was determined as 7.76 µM; in test [2], 6.86 µM; in test [3], 1 µM.

For the compound `CC(=O)NCCCC[C@H](NC(C)=O)C(=O)N[C@@H](CCCCNC(C)=S)C(=O)N[C@@H](Cc1csc2ccccc12)C(N)=O`, the IC50 was determined as 2.38 µM in test [1], 1.15 µM in [2] and 1.4 µM in [3].

Regarding `CCCC[C@H](NC(C)=O)C(=O)N[C@@H](CCCCNC(C)=S)C(=O)N[C@@H](CCCCNC(C)=O)C(N)=O`, the IC50 came out at 0.81 µM in test [1] and 2.78 µM in test [2].

In the case of `CC[C@H](NC(C)=O)C(=O)N[C@@H](CCCCNC(C)=S)C(=O)N[C@@H](CCCCNC(C)=O)C(N)=O`, the IC50 in test [1] worked out at 1.34 µM; in [2], 2.13 µM.

On to `CCCC[C@H](NC(=O)[C@H](CCCCNC(C)=S)NC(=O)[C@H](CCCCNC(C)=O)NC(C)=O)C(N)=O`, for which the IC50 in [1] was 5.1 µM; in [2] it was 0.63 µM.

Turning to `CC(=O)NCCCC[C@H](NC(C)=O)C(=O)N[C@@H](CCCCNC(C)=S)C(=O)N[C@@H](CNC(C)=O)C(N)=O`, the IC50 in test [1] was determined as 1.51 µM; in [2], 2.32 µM; in [3], 0.36 µM.

As to `CCC[C@H](NC(C)=O)C(=O)N[C@@H](CCCCNC(C)=S)C(=O)N[C@@H](CCCCNC(C)=O)C(N)=O`, the 50% inhibitory concentration (IC50) in test [1] worked out at 7.71 µM; in test [2] it was 10.7 µM; in test [3], 2.1 µM.

Consider `CC(=O)NCCCC[C@H](NC(=O)[C@H](CCCCNC(C)=S)NC(=O)[C@H](Cc1ccc2ccccc2c1)NC(C)=O)C(N)=O`, for which the IC50 in [4] is 12 µM; in test [5], 12.6 µM; in test [6] it was 1.29 µM.

Regarding `CC[C@H](NC(=O)[C@H](CCCCNC(C)=S)NC(=O)[C@H](CCCCNC(C)=O)NC(C)=O)C(N)=O`, the figures for the IC50 in test [1], in test [2] and in test [3] were 1.41 µM, 1.96 µM and 1.1 µM, respectively.

Consider `CC(=O)NCCCC[C@H](NC(=O)[C@H](CCCCNC(C)=S)NC(=O)[C@H](Cc1ccc(-c2ccccc2)cc1)NC(C)=O)C(N)=O`, for which the values for the IC50 in test [1] and in test [2] were 4.5 µM and 3.03 µM, respectively.

For `CC(=O)NCCCC[C@H](NC(C)=O)C(=O)N[C@@H](CCCCNC(C)=S)C(=O)N[C@@H](CCc1ccccc1)C(N)=O`, the IC50 in test [1] was found to be 0.65 µM; in test [2], 1.45 µM.

Turning to `CCC[C@H](NC(=O)[C@H](CCCCNC(C)=S)NC(=O)[C@H](CCCCNC(C)=O)NC(C)=O)C(N)=O`, the figures for the IC50 in [1] and in test [2] were 1.38 µM and 2.85 µM, respectively.

As for `CC(=O)NC[C@H](NC(=O)[C@H](CCCCNC(C)=S)NC(=O)[C@H](CNC(C)=O)NC(C)=O)C(N)=O`, the values for the Ratio IC50 in test [7] and in [8] were 3.7 and 6.6, respectively. Also, the half-maximal inhibitory concentration (IC50) in test [1] was found to be 11.9 µM; in test [2] it was 6.6 µM; in test [3] it was 1.8 µM.

For the compound `CC(=O)NCCCC[C@H](NC(C)=O)C(=O)N[C@@H](CCCCNC(C)=S)C(=O)N[C@@H](Cc1ccc2ccccc2c1)C(N)=O`, the figures for the IC50 in test [1], in [2] and in test [3] were 2.26 µM, 0.64 µM and 2.1 µM, respectively.

As for `CC(=O)NC[C@H](NC(=O)[C@H](CCCCNC(C)=S)NC(=O)[C@H](Cc1ccc(-c2ccccc2)cc1)NC(C)=O)C(N)=O`, the Ratio IC50 in test [7] was 4.1; in [8], 5.1. Moreover, the IC50 was found to be 8.32 µM in [1], 6.6 µM in test [2] and 1.62 µM in [3].

For `CC(=O)NC[C@H](NC(=O)[C@H](CCCCNC(C)=S)NC(=O)[C@H](Cc1ccc2ccccc2c1)NC(C)=O)C(N)=O`, the Ratio IC50 is 9.9 in test [7] and 9.3 in [8]. Moreover, the IC50 in test [4] stood at 17.8 µM; in test [5], 18.9 µM; in [9], 2000 µM; in [6] it was 1.91 µM; in test [10], 307 µM.

For the compound `CC(=O)NC[C@H](NC(=O)[C@H](CCCCNC(C)=S)NC(=O)[C@H](Cc1csc2ccccc12)NC(C)=O)C(N)=O`, the Ratio IC50 in test [7] came out at 5.5; in test [8] it was 5. The IC50 in test [1] is 8.75 µM; in test [2], 9.6 µM; in test [3] it was 1.75 µM.

Turning to `CC(=O)NCCCC[C@H](NC(=O)[C@H](CCCCNC(C)=S)NC(=O)[C@H](Cc1csc2ccccc12)NC(C)=O)C(N)=O`, the IC50 in [4] was determined as 14.5 µM; in [5], 14.4 µM; in test [6], 1.44 µM.

`CC(=O)NCCCC[C@H](NC(=O)[C@H](CCCCNC(C)=S)NC(=O)[C@H](CCc1ccccc1)NC(C)=O)C(N)=O`: the IC50 stood at 5.52 µM in test [1] and 3.65 µM in test [2].
